Assay results: ChEMBL document CHEMBL1133597, “Fluorosulfonyl-substituted xanthines as selective irreversible antagonists for the A(1)-adenosine receptor” (J Med Chem, 2000)

Experiments:
[1] = molecular target: T1, Adenosine receptor A1 (Homo sapiens) (UniProt P30542); assay: Percent loss of [3H]DPCPX binding to adenosine A1 receptor at 5 nM; details: Cricetulus griseus
T1 sequence (whole entry): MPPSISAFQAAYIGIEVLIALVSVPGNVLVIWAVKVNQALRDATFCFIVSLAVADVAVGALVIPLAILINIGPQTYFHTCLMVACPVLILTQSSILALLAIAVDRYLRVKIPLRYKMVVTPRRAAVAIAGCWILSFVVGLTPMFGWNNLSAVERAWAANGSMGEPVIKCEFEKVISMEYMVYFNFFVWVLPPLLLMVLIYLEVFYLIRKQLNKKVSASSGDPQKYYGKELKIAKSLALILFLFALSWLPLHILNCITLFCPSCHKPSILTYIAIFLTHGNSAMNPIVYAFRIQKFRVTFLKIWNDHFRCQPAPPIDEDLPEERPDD

Adenosine receptor A1 = molecular target: T2, Adenosine receptor A1 (Homo sapiens, UniProt P30542); assay: Inhibition of [3H]-DPCPX binding to adenosine A1 receptor (AR).; parameters: species or system Cricetulus griseus
T2 sequence (P30542 whole entry): T1 sequence (whole entry)

[2] = molecular target: T1, Adenosine receptor A1 (Homo sapiens); assay: Percent loss of [3H]-DPCPX binding to adenosine A1 receptor at 100 nM; details: Cricetulus griseus
[3] = molecular target: T1, Adenosine receptor A1 (Homo sapiens); assay: Percent loss of [3H]DPCPX binding to adenosine A1 receptor at 0.05 nM; details: Cricetulus griseus
[4] = molecular target: T1, Adenosine receptor A1 (Homo sapiens); assay: Percent loss of [3H]DPCPX binding to adenosine A1 receptor at 0.1 nM; details: Cricetulus griseus
[5] = molecular target: T1, Adenosine receptor A1 (Homo sapiens); assay: Percent loss of [3H]-DPCPX binding to adenosine A1 receptor at 200 nM; details: Cricetulus griseus
Adenosine receptor A2a [6] = molecular target: T3, Adenosine receptor A2a (Rattus norvegicus, UniProt P30543)
Description: Inhibition of [3H]ZM-241385 binding to adenosine A2A receptor(AR).

Adenosine receptor A2a [7] = molecular target: T3, Adenosine receptor A2a; remark: listed apart in the source
Description: Dissociation constant of [3H]ZM-241385 binding to adenosine A2A receptor(AR)

T3 sequence (P30543 whole entry): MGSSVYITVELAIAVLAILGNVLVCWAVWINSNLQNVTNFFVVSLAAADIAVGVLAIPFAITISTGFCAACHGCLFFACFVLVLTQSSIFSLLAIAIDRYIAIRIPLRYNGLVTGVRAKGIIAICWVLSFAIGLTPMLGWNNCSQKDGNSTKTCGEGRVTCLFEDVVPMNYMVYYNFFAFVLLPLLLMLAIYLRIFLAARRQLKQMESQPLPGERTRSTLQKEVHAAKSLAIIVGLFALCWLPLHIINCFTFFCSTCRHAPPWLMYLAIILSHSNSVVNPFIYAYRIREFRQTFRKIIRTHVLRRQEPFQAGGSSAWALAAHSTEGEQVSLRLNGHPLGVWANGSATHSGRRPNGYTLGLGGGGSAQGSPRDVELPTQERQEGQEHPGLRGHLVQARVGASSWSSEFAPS

Structure (SMILES) | Loss [1] | IC50 (Adenosine receptor A1) | Loss [5] | IC50 (Adenosine receptor A2a [6]) | also measured
CCCn1c(=O)c2nc(C3CCCCC3)[nH]c2n(CCCNC(=O)c2ccc(S(=O)(=O)F)cc2)c1=O | 64% | 24.9 nM | – | – | Loss [2]: 82%; Loss [3]: 16%; Loss [4]: 43%
CCCn1c(=O)c2nc(C3CCCC3)[nH]c2n(CCCOC(=O)c2ccc(S(=O)(=O)F)cc2)c1=O | 67% | – | – | – | –
CCCn1c(=O)c2nc(C3CCCCC3)[nH]c2n(CCCc2ccc(S(=O)(=O)F)cc2)c1=O | – | – | 11% | – | –
CCCn1c(=O)c2nc(C3CCCCC3)[nH]c2n(Cc2ccc(S(=O)(=O)F)cc2)c1=O | – | – | 0% | – | –
CCCn1c(=O)c2nc(C3CCCCC3)[nH]c2n(CCCCCc2ccc(S(=O)(=O)F)cc2)c1=O | – | 101 nM | 43% | > 10 nM | –
CCCn1c(=O)c2nc(C3CCCC3)[nH]c2n(CCCNC(=O)c2ccc(S(=O)(=O)F)cc2)c1=O | 74% | – | – | 2.8 nM | Loss [2]: 83%; Loss [3]: 33%; Kd (Adenosine receptor A2a [7]): 0.34 nM; Loss [4]: 64%
CCCn1c(=O)c2[nH]c(C3CCCCC3)nc2n(CCCc2ccc(S(=O)(=O)F)cc2)c1=O | – | 112 nM | – | > 10 nM | –
CCCn1c(=O)c2[nH]c(C3CCCC3)nc2n(CCCOC(=O)c2ccc(S(=O)(=O)F)cc2)c1=O | – | – | – | 1.2 nM | Kd (Adenosine receptor A2a [7]): 0.23 nM
CCCn1c(=O)c2[nH]c(C3CCCCC3)nc2n(Cc2ccc(S(=O)(=O)F)cc2)c1=O | – | 165 nM | – | > 10 nM | –
